# Data reported in PubChem BioAssay AID328 (DTP/NCI, 2004).
# Several values for one entry are separate records, joined by “and”; a condition that tells them apart may be missing. Equal values may be shown once. Inconclusive results and toxic doses are left out.
# Tested on: BDF1 mice, P388 leukemia ip, median survival T/C
# Assay: NCI In Vivo Anticancer Drug Screen. Data for tumor model P388 Leukemia (intraperitoneal) in B6D2F1 (BDF1) mice
# Conditions: endpoint: median survival time, higher = longer survival
# Method in brief: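 Survival ratio, drug arm over vehicle arm, in mice with a transplanted tumour.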
# [1] = dose: 1.0 mg/kg/injection, schedule: Q01DX009 (ip), vehicle: saline
# [2] = dose: 25.0 mg/kg/injection, schedule: Q01DX009 (ip), vehicle: saline with Tween-80
# [3] = dose: 50.0 mg/kg/injection, schedule: Q01DX009 (ip), vehicle: saline with Tween-80
# [4] = dose: 100.0 mg/kg/injection, schedule: Q01DX009 (ip), vehicle: saline with Tween-80
structure (smiles),measurement,setting,value
OCC1OC(n2cnc3c2NC=NC[C@H]3O)CC1O (stereo partly specified),T/C,"dose: 0.25 mg/kg/injection, schedule: Q01DX005 (ip), vehicle: water",102 % of control
same,T/C,"dose: 0.25 mg/kg/injection, schedule: Q01DX009 (ip), vehicle: water",105 % of control
same,T/C,"dose: 0.25 mg/kg/injection, schedule: Q04DX002 (ip), vehicle: saline",102 % of control
same,T/C,"dose: 0.25 mg/kg/injection, schedule: Q04DX003 (ip), vehicle: saline",100 % of control
same,T/C,"dose: 0.5 mg/kg/injection, schedule: Q01DX005 (ip), vehicle: water",109 % of control
same,T/C,"dose: 0.5 mg/kg/injection, schedule: Q01DX009 (ip), vehicle: water",102 % of control
same,T/C,"dose: 0.5 mg/kg/injection, schedule: Q04DX002 (ip), vehicle: saline",101 % of control
same,T/C,"dose: 0.5 mg/kg/injection, schedule: Q04DX003 (ip), vehicle: saline",99 % of control
same,T/C,"dose: 0.8 mg/kg/injection, schedule: Q01DX009 (ip), vehicle: saline",94 % of control
same,T/C,[1],99 % of control
same,T/C,"dose: 1.3 mg/kg/injection, schedule: Q01DX009 (ip), vehicle: saline",92 % of control
same,T/C,"dose: 1.5 mg/kg/injection, schedule: Q01DX009 (ip), vehicle: saline",96 % of control
same,T/C,"dose: 2.0 mg/kg/injection, schedule: Q01DX001 (ip), vehicle: saline",108 % of control
same,T/C,"dose: 2.0 mg/kg/injection, schedule: Q01DX009 (ip), vehicle: saline",92 % of control
same,T/C,"dose: 2.25 mg/kg/injection, schedule: Q01DX009 (ip), vehicle: saline",99 % of control
same,T/C,"dose: 3.0 mg/kg/injection, schedule: Q01DX009 (ip), vehicle: saline",100 % of control
same,T/C,"dose: 4.0 mg/kg/injection, schedule: Q01DX001 (ip), vehicle: saline",100 % of control
c1ccc(N=NC2=NN(c3ccccc3)CCS2)cc1,T/C,[2],116 % of control
same,T/C,[3],105 % of control
same,T/C,[4],122 % of control
Cc1ccc(NC(=O)N(CCCl)N=O)cc1NC(=O)N(CCCl)N=O,T/C,"dose: 1.25 mg/kg/injection, schedule: Q04DX003 (ip), vehicle: other",179 % of control
same,T/C,"dose: 2.5 mg/kg/injection, schedule: Q04DX003 (ip), vehicle: other",175 % of control
same,T/C,"dose: 3.12 mg/kg/injection, schedule: Q01DX009 (ip), vehicle: other",204 % of control
same,T/C,"dose: 3.13 mg/kg/injection, schedule: Q01DX009 (ip), vehicle: saline with Tween-80",185 % of control
same,T/C,"dose: 5.0 mg/kg/injection, schedule: Q04DX003 (ip), vehicle: other",200 % of control
same,T/C,"dose: 6.25 mg/kg/injection, schedule: Q01DX009 (ip), vehicle: other",207 % of control
same,T/C,"dose: 6.25 mg/kg/injection, schedule: Q01DX009 (ip), vehicle: saline with Tween-80",221 % of control
same,T/C,"dose: 6.25 mg/kg/injection, schedule: Q04DX003 (ip), vehicle: other",166 % of control
same,T/C,"dose: 12.5 mg/kg/injection, schedule: Q01DX009 (ip), vehicle: saline with Tween-80",221 % of control
same,T/C,[2],113 % of control
same,T/C,"dose: 25.0 mg/kg/injection, schedule: Q04DX003 (ip), vehicle: other",177 % of control
OC(Cc1cnc2ccccc2c1)(c1ccccc1)c1ccccc1,T/C,"dose: 25.0 mg/kg/injection, schedule: Q04DX002 (ip), vehicle: saline with Tween-80",98 % of control and 103 % of control
same,T/C,"dose: 50.0 mg/kg/injection, schedule: Q04DX002 (ip), vehicle: saline with Tween-80",99 % of control and 117 % of control
same,T/C,"dose: 100.0 mg/kg/injection, schedule: Q04DX002 (ip), vehicle: saline with Tween-80",98 % of control and 103 % of control
same,T/C,"dose: 200.0 mg/kg/injection, schedule: Q04DX002 (ip), vehicle: saline with Tween-80",94 % of control and 99 % of control and 100 % of control
same,T/C,"dose: 400.0 mg/kg/injection, schedule: Q04DX002 (ip), vehicle: saline with Tween-80",98 % of control
c1ccc(CCN2CCC3(CC2)COCc2ccccc23)cc1,T/C,"dose: 25.0 mg/kg/injection, schedule: Q01DX001 (ip), vehicle: saline with Tween-80",104 % of control
same,T/C,"dose: 50.0 mg/kg/injection, schedule: Q01DX001 (ip), vehicle: saline with Tween-80",90 % of control
CC1CC(O)C2C3(C)CCCC2(COC3=O)C12CCC1(CCOC1=O)O2 (stereo unspecified),T/C,"dose: 0.13 mg/kg/injection, schedule: Q01DX009 (ip), vehicle: saline",112 % of control
same,T/C,"dose: 0.25 mg/kg/injection, schedule: Q01DX009 (ip), vehicle: saline",104 % of control
same,T/C,"dose: 0.5 mg/kg/injection, schedule: Q01DX009 (ip), vehicle: saline",93 % of control
same,T/C,[1],104 % of control
CCN(CC)CC(C)=C(B1OC(C)(C)C(C)(C)O1)B1OC(C)(C)C(C)(C)O1,T/C,"dose: 50.0 mg/kg/injection, schedule: Q01DX001 (ip), vehicle: saline",110 % of control
same,T/C,"dose: 100.0 mg/kg/injection, schedule: Q01DX001 (ip), vehicle: saline",105 % of control
same,T/C,"dose: 200.0 mg/kg/injection, schedule: Q01DX001 (ip), vehicle: saline",100 % of control
Cc1cc(C)c(S(=O)(=O)ON=C2c3ccccc3-c3ccccc32)c(C)c1,T/C,"dose: 25.0 mg/kg/injection, schedule: Q01DX001 (ip), vehicle: Klucel (hydroxypropylcellulose) (HPC)",100 % of control
same,T/C,"dose: 50.0 mg/kg/injection, schedule: Q01DX001 (ip), vehicle: Klucel (hydroxypropylcellulose) (HPC)",109 % of control
same,T/C,"dose: 100.0 mg/kg/injection, schedule: Q01DX001 (ip), vehicle: Klucel (hydroxypropylcellulose) (HPC)",113 % of control
same,T/C,"dose: 100.0 mg/kg/injection, schedule: Q01DX009 (ip), vehicle: Klucel (hydroxypropylcellulose) (HPC)",105 % of control
same,T/C,"dose: 200.0 mg/kg/injection, schedule: Q01DX001 (ip), vehicle: Klucel (hydroxypropylcellulose) (HPC)",95 % of control
same,T/C,"dose: 200.0 mg/kg/injection, schedule: Q01DX009 (ip), vehicle: Klucel (hydroxypropylcellulose) (HPC)",95 % of control
same,T/C,"dose: 400.0 mg/kg/injection, schedule: Q01DX001 (ip), vehicle: Klucel (hydroxypropylcellulose) (HPC)",109 % of control
same,T/C,"dose: 400.0 mg/kg/injection, schedule: Q01DX009 (ip), vehicle: Klucel (hydroxypropylcellulose) (HPC)",110 % of control
O=C1CC(Nc2ccccc2)=C([N+](=O)[O-])C(=O)N1,T/C,[3],109 % of control
same,T/C,[4],102 % of control
same,T/C,"dose: 200.0 mg/kg/injection, schedule: Q01DX009 (ip), vehicle: saline with Tween-80",109 % of control
O=C(O)/C=C\c1c[nH]c2nccnc12,T/C,"dose: 12.5 mg/kg/injection, schedule: Q01DX009 (ip), vehicle: saline",103 % of control
same,T/C,"dose: 25.0 mg/kg/injection, schedule: Q01DX009 (ip), vehicle: saline",95 % of control
same,T/C,"dose: 25.0 mg/kg/injection, schedule: Q04DX003 (ip), vehicle: saline",97 % of control
same,T/C,"dose: 50.0 mg/kg/injection, schedule: Q01DX009 (ip), vehicle: saline",95 % of control
same,T/C,"dose: 50.0 mg/kg/injection, schedule: Q04DX003 (ip), vehicle: saline",100 % of control
CC(C)c1ccc2c(c1)CC[C@H]1[C@](C)(CN=C(N)CCl)CCC[C@]21C,T/C,"dose: 1.56 mg/kg/injection, schedule: Q01DX009 (ip), vehicle: Klucel (hydroxypropylcellulose) (HPC)",110 % of control
same,T/C,"dose: 3.13 mg/kg/injection, schedule: Q01DX009 (ip), vehicle: Klucel (hydroxypropylcellulose) (HPC)",112 % of control
same,T/C,"dose: 6.25 mg/kg/injection, schedule: Q01DX009 (ip), vehicle: Klucel (hydroxypropylcellulose) (HPC)",114 % of control
Nc1ncnc2c1ncn2C1OC(CO)CC1O (stereo unspecified),T/C,"dose: 4.68 mg/kg/injection, schedule: Q01DX009 (ip), vehicle: Klucel (hydroxypropylcellulose) (HPC)",108 % of control
same,T/C,"dose: 9.37 mg/kg/injection, schedule: Q01DX009 (ip), vehicle: Klucel (hydroxypropylcellulose) (HPC)",106 % of control
same,T/C,"dose: 18.75 mg/kg/injection, schedule: Q01DX009 (ip), vehicle: Klucel (hydroxypropylcellulose) (HPC)",106 % of control
same,T/C,"dose: 37.5 mg/kg/injection, schedule: Q01DX009 (ip), vehicle: Klucel (hydroxypropylcellulose) (HPC)",111 % of control
same,T/C,"dose: 75.0 mg/kg/injection, schedule: Q01DX009 (ip), vehicle: Klucel (hydroxypropylcellulose) (HPC)",106 % of control
same,T/C,"dose: 150.0 mg/kg/injection, schedule: Q01DX009 (ip), vehicle: Klucel (hydroxypropylcellulose) (HPC)",106 % of control
CCCCOB(CCl)OCCCC,T/C,"dose: 6.25 mg/kg/injection, schedule: Q01DX001 (ip), vehicle: saline",104 % of control
same,T/C,"dose: 12.5 mg/kg/injection, schedule: Q01DX001 (ip), vehicle: saline",100 % of control
same,T/C,"dose: 25.0 mg/kg/injection, schedule: Q01DX001 (ip), vehicle: saline",100 % of control
CCCCCCCCCCCCCCCC[N+](C)(C)c1ccccc1,T/C,"dose: 1.56 mg/kg/injection, schedule: Q04DX003 (ip), vehicle: saline with Tween-80",110 % of control
same,T/C,"dose: 3.13 mg/kg/injection, schedule: Q04DX003 (ip), vehicle: saline with Tween-80",115 % of control
same,T/C,"dose: 25.0 mg/kg/injection, schedule: Q04DX003 (ip), vehicle: saline with Tween-80",108 % of control
